Measurements as given in PMC12114510, “Antimicrobial, Antioxidant, and α-Glucosidase-Inhibitory Activities of Prenylated p-Hydroxybenzoic Acid Derivatives from Oberonia ensiformis” (Molecules, 2025).
Structures can show the parent of a compound that is named as a salt.

Columns and labels:
α-glucosidase = assay: α-Glucosidase inhibition assay (PNPG method); format: biochemical; conditions: for IC50, inhibition of α-glucosidase: mean ± SD, PNPG method, 5 and 6 tested as epimeric mixtures
Protocol: The inhibitory activity of the obtained compounds on α-glucosidase was evaluated using the method mentioned in previous studies with minor modifications. […] Subsequently, 50 μL of 5.0 mM p-Nitrophenyl α-D-glucopyranoside (pNPG, dissolved in 0.1 M PB, pH 6.8) was added to the mixture. After incubation at 37 °C for 30 min, the reaction was stopped by adding 80 μL of 0.2 M sodium carbonate solution (dissolved in ultrapure water) to the reaction system. The absorbance value was measured at 405 nm using a microplate reader. […] Ac: Absorbance of the reaction system containing 20 μL PBS, 50 μL α-glucosidase, and 50 μL pNPG.

[1] = DPPH radical scavenging (antioxidant) assay; conditions: for IC50, clearance rate of DPPH: mean ± SD, 5 and 6 tested as epimeric mixtures
Protocol: The activity screening of 18 compounds isolated from O. ensiformis was carried out using 96-well plates and an enzyme labeler with DPPH methanol solution as substrate (0.15 mmol/L) and sodium ascorbate as positive control. The gradient mass concentration of the samples to be tested was 200, 100, 50, 25, 12.5 μg/mL and then divided into a sample group (100 μL DPPH solution + 100 μL sample, A), a sample control group (100 μL methanol + 100 μL sample, A0), and a negative control (100 μL DPPH solution + 100 μL methanol, A1). The samples to be tested were fully reacted under light-avoiding conditions, and the OD values were determined at 517 nm after 30 min [23]. The experiments were performed three times in parallel, and the DPPH radical scavenging rate was calculated. The scavenging rate of DPPH radical was calculated according to the following equation [24].E = [1 − (A − Aa)/Ab] × 100% A:100 μL of test compounds or L-Ascorbic Acid Sodium Salt and 100 μL of DPPH. Aa: 100 μL of test compounds or L-Ascorbic Acid Sodium Salt and 100 μL of MeOH. Ab: 100 μL of MeOH and 100 μL of DPPH.

SMILES	inhibitory activity against α-glucosidase (in words) (α-glucosidase)	IC50, clearance rate of DPPH [1]	IC50, inhibition of α-glucosidase (α-glucosidase)	DPPH radical scavenging activity [1]
C=C(C)C(O)Cc1cc(C(=O)O[C@@H]2CC(C(=O)O)=C[C@@H](O)[C@H]2O)cc(CC=C(C)C)c1O (some centres unmarked) [Compound 6, oberoniaensiformisin F]	moderate	173.76 ± 23.92 µg/mL	58.07 ± 6.22 µg/mL	> 50%
C=C(C)C(O)Cc1cc(C(=O)OC(C)C(C)(O)C(=O)O)cc(CC=C(C)C)c1O (centres unmarked) [Compound 5, Oberoniaensiformisin E]	weak	–	106.10 ± 2.12 µg/mL	–
CC(C)(O)CCc1cc(C(=O)O)cc(CCC(C)(C)O)c1O [Compound 17, oberoniamyosurusin F]	no significant activity	–	–	–
CC(C)=CCc1cc(C(=O)O[C@@H]2CC(C(=O)O)=C[C@@H](O)[C@H]2O)cc2c1OC(C)(C)C=C2 [Compound 13, oberoniamyosurusin L]	moderate	–	86.53 ± 1.08 µg/mL	–
CC(C)=CCc1cc(C(=O)O)cc2c1OC(C(C)(C)O)C2 (centres unmarked) [Compound 15, oberoniamyosurusins I]	strong	–	38.80 ± 4.43 µg/mL	–
C=C(C)C(O)Cc1cc(C(=O)O)cc(CCC(C)(C)O)c1O (centres unmarked) [Compound 11, oberoniamyosurusin E]	no significant activity	–	–	–

Further lines, with some results ahead:

inhibitory activity against α-glucosidase (in words) (α-glucosidase)	IC50, clearance rate of DPPH [1]	IC50, inhibition of α-glucosidase (α-glucosidase)	SMILES	DPPH radical scavenging activity [1]
no significant activity	–	–	C=C(C)C(O)Cc1cc(C(=O)O)cc2c1OC(C)(C)C=C2 (centres unmarked) [Compound 10, liparacid A]	–
–	2.37 ± 0.11 µg/mL	–	O=C1O[C@H]([C@@H](O)CO)C(O)=C1O [L-ascorbate, L-Ascorbic Acid Sodium Salt, reference compound]	–
strong	185.36 ± 1.96 µg/mL	34.03 ± 0.16 µg/mL	CC(C)=CCc1cc(C(=O)O)cc(CC=C(C)C)c1O [Compound 12, nervogenic acid]	> 50%
no significant activity	–	–	CC(C)(O)CCc1cc(C(=O)O)cc2c1OC(C)(C)C=C2 [Compound 16, 1iparacids C]	–
no significant activity	–	–	C=C(C)C(O)Cc1cc(C(=O)O)cc(CC(O)C(=C)C)c1O (centres unmarked) [Compound 18, liparacid B]	–
